# Experimental data reported in patent US11541028B2, “Peptide pharmaceuticals for treatment of NASH and other disorders” (Mederis Diabetes LLC, priority 2018, dated 2023).
# Bridge positions count the residues as written; N and C are the ends. Square brackets hold non-standard residues; d marks the D form. Peptide text beside a SMILES is read from it. * marks the point of attachment. βGlcA(1-O-hexadecyl) = CCCCCCCCCCCCCCCCO[C@@H]1O[C@H](C(=O)*)[C@@H](O)[C@H](O)[C@H]1O; GlcA(1β-O-tetradecyl) = CCCCCCCCCCCCCCO[C@@H]1O[C@H](C(=O)*)[C@@H](O)[C@H](O)[C@H]1O; Aib = CC(C)(N)C(=O)O
# Assays:
# [1] = biological target: T1, human glucagon receptor (Homo sapiens, UniProt P47871); assay: DiscoveRx LeadHunter cellular assay, cAMP stimulation, glucagon receptor in CHO cells; format: cell-based
# T1 construct: host or cells: CHO cells
# [2] = biological target: T2, human GLP-1 receptor (Homo sapiens, UniProt P43220); assay: DiscoveRx LeadHunter cellular assay, cAMP stimulation, GLP-1 receptor in CHO cells; format: cell-based; conditions: human GLP-1 receptor in CHO cells (DiscoveRx); read-out: EC50 cAMP GLP-1 R
# T2 construct: host or cells: CHO cells
# T2 sequence (P43220 24-463): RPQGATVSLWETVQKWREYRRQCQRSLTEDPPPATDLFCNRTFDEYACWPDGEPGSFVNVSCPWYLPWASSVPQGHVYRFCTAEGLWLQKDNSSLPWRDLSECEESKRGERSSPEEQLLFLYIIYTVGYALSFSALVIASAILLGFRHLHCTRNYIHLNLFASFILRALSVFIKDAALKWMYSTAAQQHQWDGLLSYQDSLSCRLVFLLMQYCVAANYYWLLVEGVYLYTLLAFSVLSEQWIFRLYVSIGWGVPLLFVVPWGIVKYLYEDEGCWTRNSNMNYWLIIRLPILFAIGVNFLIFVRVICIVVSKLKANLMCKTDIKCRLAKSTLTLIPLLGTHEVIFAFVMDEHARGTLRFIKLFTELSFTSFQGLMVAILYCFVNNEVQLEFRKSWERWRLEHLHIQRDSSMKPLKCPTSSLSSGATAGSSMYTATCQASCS
# T1 sequence (P47871 26-477): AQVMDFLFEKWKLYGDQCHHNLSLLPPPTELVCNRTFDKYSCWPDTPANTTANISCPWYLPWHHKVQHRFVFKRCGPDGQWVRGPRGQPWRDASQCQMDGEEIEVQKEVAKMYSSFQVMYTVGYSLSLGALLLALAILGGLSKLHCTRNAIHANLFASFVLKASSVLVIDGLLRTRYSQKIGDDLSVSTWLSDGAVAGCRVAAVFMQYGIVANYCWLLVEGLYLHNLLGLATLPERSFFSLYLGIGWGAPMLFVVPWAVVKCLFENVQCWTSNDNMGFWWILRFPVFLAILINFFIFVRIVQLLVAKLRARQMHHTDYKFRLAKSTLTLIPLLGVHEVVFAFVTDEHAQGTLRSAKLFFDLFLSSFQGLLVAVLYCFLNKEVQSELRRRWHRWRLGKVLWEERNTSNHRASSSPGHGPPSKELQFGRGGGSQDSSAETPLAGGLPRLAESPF
EC50 [1] [nM],EC50 [2] [nM],Structure (SMILES)
0.069,0.007,CCCCCCCCCCCCCCO[C@@H]1O[C@H](CO[C@H]2O[C@H](C(=O)NCCCC[C@H](NC(=O)[C@@H](NC(=O)[C@H](Cc3ccccc3)NC(=O)[C@H](CCC(=O)O)NC(=O)[C@@H]3CCCCNC(=O)CC[C@H](NC(=O)[C@H](CC(=O)O)NC(=O)[C@H](CC(C)C)NC(=O)[C@H](Cc4ccc(O)cc4)NC(=O)[C@H](CCCCN)NC(=O)[C@H](CO)NC(=O)[C@H](Cc4ccc(O)cc4)NC(=O)[C@H](CC(=O)O)NC(=O)[C@H](CO)NC(=O)[C@@H](NC(=O)[C@H](Cc4ccccc4)NC(=O)[C@@H](NC(=O)CNC(=O)[C@H](CCC(N)=O)NC(=O)C(C)(C)NC(=O)[C@@H](N)Cc4c[nH]cn4)[C@@H](C)O)[C@@H](C)O)C(=O)N[C@@H](CCC(N)=O)C(=O)N[C@@H](C)C(=O)N[C@@H](C)C(=O)N3)[C@@H](C)CC)C(=O)N[C@@H](Cc3c[nH]c4ccccc34)C(=O)N[C@@H](CC(C)C)C(=O)N[C@@H](CC(C)C)C(=O)N[C@@H](CCC(N)=O)C(=O)N[C@H](C(=O)O)[C@@H](C)O)[C@H](O)[C@H](O)[C@H]2O)[C@@H](O)[C@H](O)[C@H]1O [EU-A1577]
0.931,0.008,CCCCCCCCCCCCCCCCO[C@@H]1O[C@H](C(=O)NCCCC[C@H](NC(=O)[C@H](C)NC(=O)[C@H](C)NC(=O)[C@H](CCC(N)=O)NC(=O)[C@H](CO)NC(=O)[C@H](CC(=O)O)NC(=O)[C@@H]2CCCCNC(=O)CC[C@H](NC(=O)[C@H](CC(=O)O)NC(=O)[C@H](CO)NC(=O)[C@@H](NC(=O)[C@H](Cc3ccccc3)NC(=O)[C@@H](NC(=O)CNC(=O)[C@H](CCC(N)=O)NC(=O)C(C)(C)NC(=O)[C@@H](N)Cc3c[nH]cn3)[C@@H](C)O)[C@@H](C)O)C(=O)N[C@@H](CO)C(=O)N[C@@H](CCCCN)C(=O)N[C@@H](Cc3ccc(O)cc3)C(=O)N2)C(=O)N[C@@H](CCC(=O)O)C(=O)N[C@@H](Cc2ccccc2)C(=O)N[C@H](C(=O)N[C@@H](CCC(N)=O)C(=O)N[C@@H](Cc2c[nH]c3ccccc23)C(=O)N[C@@H](CC(C)C)C(=O)N[C@@H](CC(C)C)C(=O)N[C@@H](CCC(N)=O)C(=O)N[C@H](C(N)=O)[C@@H](C)O)[C@@H](C)CC)[C@@H](O)[C@H](O)[C@H]1O [EU-A1735] (H-H[Aib]QGTFTSDESKYKDSQAAK(βGlcA(1-O-hexadecyl))EFIQWLLQT-NH2; lactam 10-14; N-terminus assumed)
1.95,0.032,CCCCCCCCCCCCCCO[C@@H]1O[C@H](C(=O)NCCCC[C@H](NC(=O)[C@H](C)NC(=O)[C@H](C)NC(=O)[C@H](CCC(N)=O)NC(=O)[C@H](CO)NC(=O)[C@H](CC(=O)O)NC(=O)[C@@H]2CCCCNC(=O)CC[C@H](NC(=O)[C@H](CC(=O)O)NC(=O)[C@H](CO)NC(=O)[C@@H](NC(=O)[C@H](Cc3ccccc3)NC(=O)[C@@H](NC(=O)CNC(=O)[C@H](CCC(N)=O)NC(=O)C(C)(C)NC(=O)[C@@H](N)Cc3c[nH]cn3)[C@@H](C)O)[C@@H](C)O)C(=O)N[C@@H](CO)C(=O)N[C@@H](CCCCN)C(=O)N[C@@H](Cc3ccc(O)cc3)C(=O)N2)C(=O)N[C@@H](CCC(=O)O)C(=O)N[C@@H](Cc2ccccc2)C(=O)N[C@H](C(=O)N[C@@H](CCC(=O)O)C(=O)N[C@@H](Cc2c[nH]c3ccccc23)C(=O)N[C@@H](CC(C)C)C(=O)N[C@@H](CC(C)C)C(=O)N[C@@H](CCC(N)=O)C(=O)N[C@H](C(N)=O)[C@@H](C)O)[C@@H](C)CC)[C@@H](O)[C@H](O)[C@H]1O [EU-A1847] (H-H[Aib]QGTFTSDESKYKDSQAAK(GlcA(1β-O-tetradecyl))EFIEWLLQT-NH2; lactam 10-14; N-terminus assumed)
